Results published in PubChem BioAssay (NCI).
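At the GI50, growth is halved. TGI: total growth inhibition.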

What was measured:
Assay in all cases: NCI-60 cell line screen, 384-well format
K-562 leukemia = test system: K-562 leukemia
MDA-MB-468 breast = test system: MDA-MB-468 breast
DU-145 prostate = test system: DU-145 prostate
A498 renal = test system: A498 renal
NCI-H23 lung = test system: NCI-H23 lung
786-0 renal = test system: 786-0 renal
TK-10 renal = test system: TK-10 renal
MDA-MB-231 breast = test system: MDA-MB-231 breast
OVCAR-4 ovarian = test system: OVCAR-4 ovarian
UACC-257 melanoma = test system: UACC-257 melanoma
OVCAR-3 ovarian = test system: OVCAR-3 ovarian
EKVX NSCLC = test system: EKVX NSCLC
MDA-MB-435 melanoma = test system: MDA-MB-435 melanoma
HCC-2998 colon = test system: HCC-2998 colon
HCT-116 colon = test system: HCT-116 colon
NCI-H522 lung = test system: NCI-H522 lung
SF-295 CNS = test system: SF-295 CNS
BT-549 breast = test system: BT-549 breast
COLO 205 colon = test system: COLO 205 colon
CAKI-1 renal = test system: CAKI-1 renal
HOP-62 NSCLC = test system: HOP-62 NSCLC
SK-MEL-5 melanoma = test system: SK-MEL-5 melanoma
HT29 colon = test system: HT29 colon
RXF 393 renal = test system: RXF 393 renal
SF-539 CNS = test system: SF-539 CNS
HS 578T breast = test system: HS 578T breast
UO-31 renal = test system: UO-31 renal
NCI/ADR-RES ovarian = test system: NCI/ADR-RES ovarian
NCI-H226 lung = test system: NCI-H226 lung
MCF7 breast = test system: MCF7 breast
HCT-15 colon = test system: HCT-15 colon
SK-MEL-28 melanoma = test system: SK-MEL-28 melanoma
OVCAR-5 ovarian = test system: OVCAR-5 ovarian
CCRF-CEM leukemia = test system: CCRF-CEM leukemia
MALME-3M melanoma = test system: MALME-3M melanoma
U251 glioblastoma = test system: U251 glioblastoma
RPMI-8226 leukemia = test system: RPMI-8226 leukemia
T-47D breast = test system: T-47D breast
PC-3 prostate = test system: PC-3 prostate
SW-620 colon = test system: SW-620 colon
OVCAR-8 ovarian = test system: OVCAR-8 ovarian
SR leukemia = test system: SR leukemia
SN12C renal = test system: SN12C renal
MOLT-4 leukemia = test system: MOLT-4 leukemia
SNB-19 CNS = test system: SNB-19 CNS
UACC-62 melanoma = test system: UACC-62 melanoma
M14 melanoma = test system: M14 melanoma
SF-268 CNS = test system: SF-268 CNS
HOP-92 NSCLC = test system: HOP-92 NSCLC
SNB-75 CNS = test system: SNB-75 CNS
IGROV1 ovarian = test system: IGROV1 ovarian
SK-MEL-2 melanoma = test system: SK-MEL-2 melanoma
KM12 colon = test system: KM12 colon
A549 NSCLC = test system: A549 NSCLC
SK-OV-3 ovarian = test system: SK-OV-3 ovarian
NCI-H460 NSCLC = test system: NCI-H460 NSCLC
NCI-H322M lung = test system: NCI-H322M lung
HL-60(TB) leukemia = test system: HL-60(TB) leukemia
LOX IMVI melanoma = test system: LOX IMVI melanoma

CO[C@@H](C)Cn1c(=O)n(C)c2cnc3ccc(-c4cncc(C(C)(C)O)c4)cc3c21
GI50 (K-562 leukemia): 162 nM
TGI (K-562 leukemia): 11.8 µM
GI50 (MDA-MB-468 breast): 165 nM
TGI (MDA-MB-468 breast): 574 nM
GI50 (DU-145 prostate): 84.6 nM
TGI (DU-145 prostate): 2690 nM
GI50 (A498 renal): 33 nM
TGI (A498 renal): 374 nM
GI50 (NCI-H23 lung): 319 nM
TGI (NCI-H23 lung): 2600 nM
GI50 ([…]-0 renal): 133 nM
TGI (786-0 renal): 4.55 µM
GI50 (TK-10 renal): 220 nM
TGI (TK-10 renal): 907 nM
GI50 (MDA-MB-231 breast): 57.1 nM
TGI (MDA-MB-231 breast): 20.6 µM
GI50 (OVCAR-4 ovarian): 126 nM
TGI (OVCAR-4 ovarian): 722 nM
GI50 (UACC-257 melanoma): 429 nM
TGI (UACC-257 melanoma): 2700 nM
GI50 (OVCAR-3 ovarian): 84.6 nM
TGI (OVCAR-3 ovarian): 894 nM
GI50 (EKVX NSCLC): 96.1 nM
TGI (EKVX NSCLC): 885 nM
GI50 (MDA-MB-435 melanoma): 194 nM
TGI (MDA-MB-435 melanoma): 2360 nM
GI50 (HCC-2998 colon): 188 nM
TGI (HCC-2998 colon): 2110 nM
GI50 (HCT-116 colon): 390 nM
TGI (HCT-116 colon): 1770 nM
GI50 (NCI-H522 lung): 104 nM
TGI (NCI-H522 lung): 1630 nM
GI50 (SF-295 CNS): 57 nM
TGI (SF-295 CNS): 413 nM
GI50 (BT-549 breast): 96.2 nM
TGI (BT-549 breast): 503 nM
GI50 (COLO 205 colon): 186 nM
TGI (COLO 205 colon): 1480 nM
GI50 (CAKI-1 renal): 76.1 nM
TGI (CAKI-1 renal): 485 nM
GI50 (HOP-62 NSCLC): 109 nM
TGI (HOP-62 NSCLC): 1340 nM
GI50 (SK-MEL-5 melanoma): 157 nM
TGI (SK-MEL-5 melanoma): 463 nM
GI50 (HT29 colon): 226 nM
TGI (HT29 colon): 11.1 µM
GI50 (RXF 393 renal): 54.6 nM
TGI (RXF 393 renal): 1370 nM
GI50 (SF-539 CNS): 141 nM
TGI (SF-539 CNS): 1970 nM
GI50 (HS 578T breast): 35.7 nM
TGI (HS 578T breast): 217 nM
GI50 (UO-31 renal): 122 nM
TGI (UO-31 renal): 6.31 µM
GI50 (NCI/ADR-RES ovarian): 2150 nM
TGI (NCI/ADR-RES ovarian): 15.4 µM
GI50 (NCI-H226 lung): 109 nM
TGI (NCI-H226 lung): 667 nM
GI50 (MCF7 breast): 71.1 nM
TGI (MCF7 breast): 1670 nM
GI50 (HCT-15 colon): 154 nM
TGI (HCT-15 colon): 12.5 µM
GI50 (SK-MEL-28 melanoma): 221 nM
TGI (SK-MEL-28 melanoma): 3.48 µM
GI50 (OVCAR-5 ovarian): 206 nM
TGI (OVCAR-5 ovarian): 1690 nM
GI50 (CCRF-CEM leukemia): 77.9 nM
TGI (CCRF-CEM leukemia): 707 nM
GI50 (MALME-3M melanoma): 62.6 nM
TGI (MALME-3M melanoma): 327 nM
GI50 (U251 glioblastoma): 221 nM
TGI (U251 glioblastoma): 3.46 µM
GI50 (RPMI-8226 leukemia): 28.2 nM
TGI (RPMI-8226 leukemia): 78.8 nM
GI50 (T-47D breast): 77.1 nM
TGI (T-47D breast): 406 nM
GI50 (PC-3 prostate): 84.2 nM
TGI (PC-3 prostate): 740 nM
GI50 (SW-620 colon): 197 nM
TGI (SW-620 colon): 1360 nM
GI50 (OVCAR-8 ovarian): 86.8 nM
TGI (OVCAR-8 ovarian): 11.2 µM
GI50 (SR leukemia): 20.2 nM
TGI (SR leukemia): 55 nM
GI50 (SN12C renal): 84.9 nM
TGI (SN12C renal): 3.57 µM
GI50 (MOLT-4 leukemia): 81.2 nM
TGI (MOLT-4 leukemia): 299 nM
GI50 (SNB-19 CNS): 334 nM
TGI (SNB-19 CNS): 12.6 µM
GI50 (UACC-62 melanoma): 102 nM
TGI (UACC-62 melanoma): 719 nM
GI50 (M14 melanoma): 151 nM
TGI (M14 melanoma): 1850 nM
GI50 (SF-268 CNS): 293 nM
TGI (SF-268 CNS): 1770 nM
GI50 (HOP-92 NSCLC): 150 nM
TGI (HOP-92 NSCLC): 702 nM
GI50 (SNB-75 CNS): 44 nM
TGI (SNB-75 CNS): 502 nM
GI50 (IGROV1 ovarian): 35 nM
TGI (IGROV1 ovarian): 173 nM
GI50 (SK-MEL-2 melanoma): 243 nM
TGI (SK-MEL-2 melanoma): 592 nM
GI50 (KM12 colon): 136 nM
TGI (KM12 colon): 12.9 µM
GI50 (A549 NSCLC): 70.7 nM
TGI (A549 NSCLC): 1180 nM
GI50 (SK-OV-3 ovarian): 88.4 nM
TGI (SK-OV-3 ovarian): 1010 nM
GI50 (NCI-H460 NSCLC): 45.1 nM
TGI (NCI-H460 NSCLC): 1570 nM
GI50 (NCI-H322M lung): 139 nM
TGI (NCI-H322M lung): 2300 nM
GI50 (HL-60(TB) leukemia): 463 nM
TGI (HL-60(TB) leukemia): 1610 nM
GI50 (LOX IMVI melanoma): 78.2 nM
TGI (LOX IMVI melanoma): 918 nM
